According to ChEMBL document CHEMBL1641416, “2-Arylbenzoxazoles as CETP inhibitors: raising HDL-C in cynoCETP transgenic mice” (Bioorg Med Chem Lett, 2011):

Tests used:
in vivo [1] = details: mouse, po
Description: Oral bioavailability in wild type mouse

in vivo [2] = details: mouse
Description: Half life in wild type mouse

in vivo [3] = details: mouse; remark: listed apart in the source
Description: Clearance in wild type mouse

- bioavailability (in vivo [1]): 56%
- half-life (in vivo [2]): 4.1 h
- clearance (in vivo [3]): 25 mL/min/kg
SMILES: Cc1cc(C#N)cc2nc(-c3ccc(NC(=O)CN4CCN(c5ccc(C(F)(F)F)cc5)CC4)cc3)oc12
